# Results as given in patent publication US20100056519A1, “COMPOSITION AND METHOD FOR REDUCING PLATELET ACTIVATION AND FOR THE TREATMENT OF THROMBOTIC EVENTS” (priority 2008, published 2010).
# Legend:
# Assay type in all cases: cell-based, human
# [1] = test system: Thrombospondin-Receptor (CD36); test: Unstimulated whole blood flow cytometry, thrombospondin receptor; settings: for Thrombospondin-Receptor (CD36), Mean Fluorescence Intensity: unstimulated, Mean ± SD
# Method: (§1) The methodology employed was conventional aggregation induced by 5 μM ADP, 1 μg/ml collagen, 10 μM TRAP, whole blood aggregation with 1 μg/ml collagen, Ultegra, and PFA-100 Analyzers, expression of 14 intact, and TRAP-stimulated major receptors by whole blood flow cytometry were utilized to assess platelet activity after preincubation with escalating concentrations of E5555 (20 ng/ml, 50 ng/ml, and 100 ng/ml). The experiments were performed in healthy volunteers, CAD patients treated with ASA, and CAD patients treated with ASA and clopidogrel combination (n=10, for each group).
# (§2) An Informed Consent was obtained from all volunteers. Drug users were excluded from data analysis. The study was approved by Quorum Institutional Review Board. All subjects underwent blood sampling after at least 30 minutes of rest and two or more hours of fasting. Blood (28 ml) was drawn between 8 and 10 a.m. in order to avoid any diurnal influence and sampled from an antecubital vein using a 21-gauge butterfly needle containing 3.2% sodium citrate (1:9 volume) after having discarded the first 1.5 ml of free running blood. Four Vacutainer tubes (7.0 ml) were collected for a total of 28 ml of whole blood-citrate mixture from each study participant. Chronologically, blood samples were delivered to the core laboratory facility within 45 minutes after drawing. Then all tubes of blood-citrate mixture were pooled. One portion of pooled blood (5 ml) was kept as an internal control and pretreated with the vehicle. The remaining blood (23 ml) was used for the in vitro exposure to E5555 at concentrations of 20 ng/ml, 50 ng/ml, and 100 ng/ml. […] The platelet aggregation studies, Rapid Analyzers measures, and flow cytometry preparations were initiated within no more than 110 minutes following the blood draw, incubation with the drug, and preparation of the samples.
# (§3) Formation of platelet-leukocyte aggregates was assessed by dual labeling with pan-platelet marker (CD151), and then with CD14, the macrophage receptor for endotoxin lipopolysaccharides (PharMingen, and Coulter, San Diego, Calif., USA). The tubes were then covered with aluminum foil and incubated at 37° C. for 40 minutes with gentle rotation. After incubation, samples were immediately analyzed on a Becton Dickinson FACScan flow cytometer. The instrument was set up to measure forward light scatter, and FITC fluorescence. All parameters were collected using four-decade logarithmic amplification. The data was retrieved in list mode files and then analyzed. P selectin was expressed as percent positive cells. Other antigens were expressed as log mean fluorescence intensity.
# GPIIb antigen (CD41) = test: Unstimulated whole blood flow cytometry, GPIIb antigen; settings: for GPIIb antigen (CD41), Mean Fluorescence Intensity: unstimulated, Mean ± SD
# Method: as §1, §2, §3
# platelets [2] = test: Conventional platelet aggregation in PRP induced by 5 μM ADP; settings: for Platelet Aggregation (%), ADP 5 μM: Mean ± SD
# Method: as §1, §2
# Platelet counts were determined in each PRP sample with a Coulter Counter ZM (Coulter Co., Hialeah, Fla.). Platelet numbers were adjusted to 3.50×10^8/ml for aggregation using homologous platelet-poor plasma. Platelet aggregation was stimulated with 5 μM ADP, 1 μg/ml collagen, or 10 μM TRAP. All agonists were obtained from Chronolog Corporation (Havertown, Pa.) and Sigma (St. Louis, Miss.). Platelet aggregation experiments were performed using a Chrono-Log Lumi-Aggregometer (model 560-Ca). Aggregation curves were recorded for 4 minutes and analyzed according to internationally established standards using Aggrolink® software. Platelet aggregability was expressed as the percentage of light transmittance change from baseline using platelet-poor plasma as a reference.
# PECAM-1 (CD31) = test: Unstimulated whole blood flow cytometry, PECAM-1; settings: for PECAM-1 (CD31), Mean Fluorescence Intensity: unstimulated, Mean ± SD
# Method: as §1, §2, §3
# platelets [3] = test: Ultegra Rapid Platelet-Function Assay (RPFA-TRAP); settings: for Platelet Activation Units (PAU): Mean ± SD
# Method: as §1, §2
# Whole blood aggregation was determined using a Chronolog device 592A. The whole blood-citrate mixture was diluted 1:1 with 0.5 ml phosphate buffered saline and gently swirled. The sample then was allowed to warm to 37° C. for 5 minutes then transferred to the assay well. The electrode was then placed in the cuvette and the sample was stimulated with 1 μg/ml collagen. The change in electrical impedance was digitally recorded. Each whole blood sample was analyzed utilizing 2 different clinical devices: • (1) a Rapid Platelet-Function Assay (Ultegra®) (Accumetrics, Inc., San Diego, Calif.), which is a rapid platelet-function assay aspirin cartridge test with TRAP used as agonist. Polystyrene beads coated with fibrinogen are placed in a cartridge along with the peptide that activates thrombin receptor. Anticoagulated whole blood was added to the cartridge, and agglutination between platelets and coated beads was recorded. The data mirrors turbidimetric platelet aggregation and presumably reflects platelet glycoprotein IIb/IIIa blockade. Ultegra RPFA-TRAP Assay results were reported as Platelet Activation Units (PAU); and • (2) Platelet-Function Analyzer PFA-100 ™ (Dade Behring, Deerfield Ill.), which is a high shear-inducing analyzer that simulates primary hemostasis after injury to a small vessel under flow conditions. The device provides a constant negative pressure that aspirates whole blood, which comes into contact with the collagen, coated membrane and then passes through the aperture. The time required to obtain occlusion of the aperture is digitally recorded. The time to aperture occlusion (the closure time) is recorded in seconds and is inversely related to the degree of shear-induced platelet activation. We used ADP/Collagen cartridges in the index study. Both PFA-100 and Ultegra assays were performed in duplicate. An electronic quality control test was performed on each instrument daily prior to performing any patient samples.
# [4] = overall summary, stimulation not stated
# [5] = E5555 20 ng/ml, Patients (ASA + C)
# [6] = E5555 50 ng/ml, Patients (ASA + C)
# [7] = E5555 100 ng/ml, Patients (ASA + C)
# [8] = E5555 100 ng/ml, Patients (ASA)
structure (smiles),measurement,setting,value
"Br.CCOc1cc2c(c(F)c1OCC)C(=N)N(CC(=O)c1cc(N3CCOCC3)c(OC)c(C(C)(C)C)c1)C2 [E5555, 1-(3-tert-butyl-4-methoxy-5-morpholinophenyl)-2-(5,6-diethoxy-7-fluoro-1-imino-1,3-dihydro-2H-isoindol-2-yl)ethanone hydrobromide]","thrombospondin receptor expression, effect in words",[1]; [4],significant reduction
same,"Thrombospondin-Receptor (CD36), Mean Fluorescence Intensity",[1]; [5],6.8 ± 1.9 MFI
same,"Thrombospondin-Receptor (CD36), Mean Fluorescence Intensity","[1]; E5555 20 ng/ml, Patients (ASA)",7.2 ± 0.5 MFI
same,"Thrombospondin-Receptor (CD36), Mean Fluorescence Intensity","[1]; E5555 20 ng/ml, Volunteers",8.4 ± 1.1 MFI
same,"Thrombospondin-Receptor (CD36), Mean Fluorescence Intensity",[1]; [6],7.0 ± 1.0 MFI
same,"Thrombospondin-Receptor (CD36), Mean Fluorescence Intensity","[1]; E5555 50 ng/ml, Patients (ASA)",7.0 ± 0.7 MFI
same,"Thrombospondin-Receptor (CD36), Mean Fluorescence Intensity","[1]; E5555 50 ng/ml, Volunteers",8.2 ± 0.8 MFI
same,"Thrombospondin-Receptor (CD36), Mean Fluorescence Intensity",[1]; [7],7.1 ± 1.2 MFI
same,"Thrombospondin-Receptor (CD36), Mean Fluorescence Intensity",[1]; [8],7.4 ± 0.9 MFI
same,"Thrombospondin-Receptor (CD36), Mean Fluorescence Intensity","[1]; E5555 100 ng/ml, Volunteers",8.4 ± 1.0 MFI
same,"GP IIb/IIIa antigen expression, effect in words",GPIIb antigen (CD41); [4],significant reduction
same,"GPIIb antigen (CD41), Mean Fluorescence Intensity",GPIIb antigen (CD41); [5],219 ± 25 MFI
same,"GPIIb antigen (CD41), Mean Fluorescence Intensity","GPIIb antigen (CD41); E5555 20 ng/ml, Patients (ASA)",391 ± 44 MFI
same,"GPIIb antigen (CD41), Mean Fluorescence Intensity","GPIIb antigen (CD41); E5555 20 ng/ml, Volunteers",423 ± 27 MFI
same,"GPIIb antigen (CD41), Mean Fluorescence Intensity",GPIIb antigen (CD41); [6],240 ± 32 MFI
same,"GPIIb antigen (CD41), Mean Fluorescence Intensity","GPIIb antigen (CD41); E5555 50 ng/ml, Patients (ASA)",404 ± 31 MFI
same,"GPIIb antigen (CD41), Mean Fluorescence Intensity","GPIIb antigen (CD41); E5555 50 ng/ml, Volunteers",409 ± 25 MFI
same,"GPIIb antigen (CD41), Mean Fluorescence Intensity",GPIIb antigen (CD41); [7],233 ± 30 MFI
same,"GPIIb antigen (CD41), Mean Fluorescence Intensity",GPIIb antigen (CD41); [8],396 ± 42 MFI
same,"GPIIb antigen (CD41), Mean Fluorescence Intensity","GPIIb antigen (CD41); E5555 100 ng/ml, Volunteers",416 ± 24 MFI
same,"inhibition of platelet activity, aggregation induced by ADP",platelets [2]; ASA-treated patients with coronary artery disease,10-12%
same,"ADP-induced aggregation, effect in words",platelets [2]; CAD patients treated with ASA+clopidogrel,remains unchanged
same,"Platelet Aggregation (%), ADP 5 μM","platelets [2]; E5555 20 ng/ml, CAD patients treated with ASA + clopidogrel",40.8 ± 7.1%
same,"Platelet Aggregation (%), ADP 5 μM","platelets [2]; E5555 20 ng/ml, CAD patients treated with ASA",51.8 ± 4.7 %
same,"Platelet Aggregation (%), ADP 5 μM","platelets [2]; E5555 20 ng/ml, healthy volunteers",57.0 ± 9.2 %
same,"Platelet Aggregation (%), ADP 5 μM","platelets [2]; E5555 50 ng/ml, CAD patients treated with ASA + clopidogrel",42.6 ± 8.3%
same,"Platelet Aggregation (%), ADP 5 μM","platelets [2]; E5555 50 ng/ml, CAD patients treated with ASA",53.3 ± 5.9 %
same,"Platelet Aggregation (%), ADP 5 μM","platelets [2]; E5555 50 ng/ml, healthy volunteers",59.4 ± 7.9 %
same,"Platelet Aggregation (%), ADP 5 μM","platelets [2]; E5555 100 ng/ml, CAD patients treated with ASA + clopidogrel",39.3 ± 5.1%
same,"Platelet Aggregation (%), ADP 5 μM","platelets [2]; E5555 100 ng/ml, CAD patients treated with ASA",56.2 ± 5.3%
same,"Platelet Aggregation (%), ADP 5 μM","platelets [2]; E5555 100 ng/ml, healthy volunteers",60.8 ± 10.0 %
same,inhibition of conventional platelet aggregation induced by ADP,"platelets [2]; healthy volunteers, E5555 20, 50, and 100 ng/ml",15-20%
same,inhibition of ADP-induced platelet aggregation in plasma,platelets [2]; overall summary of the study,10-15%
same,"PECAM-1 expression, effect in words",PECAM-1 (CD31); [4],significant reduction
same,"PECAM-1 (CD31), Mean Fluorescence Intensity",PECAM-1 (CD31); [5],55 ± 11 MFI
same,"PECAM-1 (CD31), Mean Fluorescence Intensity","PECAM-1 (CD31); E5555 20 ng/ml, Patients (ASA)",52 ± 9 MFI
same,"PECAM-1 (CD31), Mean Fluorescence Intensity","PECAM-1 (CD31); E5555 20 ng/ml, Volunteers",64 ± 10 MFI
same,"PECAM-1 (CD31), Mean Fluorescence Intensity",PECAM-1 (CD31); [6],51 ± 9 MFI
same,"PECAM-1 (CD31), Mean Fluorescence Intensity","PECAM-1 (CD31); E5555 50 ng/ml, Patients (ASA)",53 ± 7 MFI
same,"PECAM-1 (CD31), Mean Fluorescence Intensity","PECAM-1 (CD31); E5555 50 ng/ml, Volunteers",60 ± 8 MFI
same,"PECAM-1 (CD31), Mean Fluorescence Intensity",PECAM-1 (CD31); [7],54 ± 8 MFI
same,"PECAM-1 (CD31), Mean Fluorescence Intensity",PECAM-1 (CD31); [8],57 ± 10 MFI
same,"PECAM-1 (CD31), Mean Fluorescence Intensity","PECAM-1 (CD31); E5555 100 ng/ml, Volunteers",64 ± 11 MFI
same,Platelet Activation Units (PAU),platelets [3]; [5],115 ± 21 PAU
same,Platelet Activation Units (PAU),"platelets [3]; E5555 20 ng/ml, Patients (ASA)",118 ± 12 PAU
same,Platelet Activation Units (PAU),"platelets [3]; E5555 20 ng/ml, Volunteers",270 ± 30 PAU
same,Platelet Activation Units (PAU),platelets [3]; [6],108 ± 20 PAU
same,Platelet Activation Units (PAU),"platelets [3]; E5555 50 ng/ml, Patients (ASA)",114 ± 11 PAU
same,Platelet Activation Units (PAU),"platelets [3]; E5555 50 ng/ml, Volunteers",126 ± 20 PAU
same,Platelet Activation Units (PAU),platelets [3]; [7],112 ± 18 PAU
same,Platelet Activation Units (PAU),platelets [3]; [8],113 ± 14 PAU
same,Platelet Activation Units (PAU),"platelets [3]; E5555 100 ng/ml, Volunteers",117 ± 21 PAU
same,"Platelet Analyzer readings, fibrinogen binding, effect in words",platelets [3]; overall summary,diminished fibrinogen binding
same,"Ultegra Analyzer PAU, effect in words",platelets [3]; volunteers and CAD patients on ASA alone or with clopidogrel,reduction of PAU
